Drawing on patent EP2435433B1, “(DIHYDRO)IMIDAZOISO[5,1-A]QUINOLINES AS FSH RECEPTOR AGONISTS FOR THE TREATMENT OF FERTILITY DISORDERS” (Merck Sharp & Dohme B.V., priority 2009, dated 2010), this text covers EC50 for 22 compounds.

The target in one assay is T1, human FSH receptor (Homo sapiens, UniProt P23945).
T1 construct: expressed in transfected cells; host or cells: Chinese Hamster Ovary (CHO) cells, stably transfected, cotransfected with CRE/promotor-firefly luciferase reporter
T1 sequence (P23945 18-695): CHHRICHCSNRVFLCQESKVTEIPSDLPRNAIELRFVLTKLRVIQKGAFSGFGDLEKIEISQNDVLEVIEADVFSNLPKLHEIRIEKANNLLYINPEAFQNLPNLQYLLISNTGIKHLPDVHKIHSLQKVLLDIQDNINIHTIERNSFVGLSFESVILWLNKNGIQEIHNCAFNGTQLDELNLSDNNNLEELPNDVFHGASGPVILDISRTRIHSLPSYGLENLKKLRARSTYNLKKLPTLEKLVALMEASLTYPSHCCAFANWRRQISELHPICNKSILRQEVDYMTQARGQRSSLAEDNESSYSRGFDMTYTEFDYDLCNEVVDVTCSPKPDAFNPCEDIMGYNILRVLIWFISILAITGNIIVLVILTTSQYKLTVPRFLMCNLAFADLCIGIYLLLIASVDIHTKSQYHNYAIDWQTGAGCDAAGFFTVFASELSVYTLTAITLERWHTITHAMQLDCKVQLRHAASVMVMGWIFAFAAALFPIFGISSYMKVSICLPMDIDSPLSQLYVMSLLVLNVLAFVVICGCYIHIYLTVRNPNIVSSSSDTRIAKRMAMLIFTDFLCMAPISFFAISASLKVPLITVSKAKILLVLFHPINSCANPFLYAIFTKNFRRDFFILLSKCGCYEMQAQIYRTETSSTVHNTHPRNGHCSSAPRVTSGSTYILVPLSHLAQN
Put plainly: Agonistic activity of compounds at the human FSH receptor expressed in CHO cells, CRE/luciferase reporter (hFSHRago (CHO luc)). Format: cell-based.
Details: not given
An excerpt: The term EC50 means the concentration of the test compound that elicits half-maximal (50 %) stimulation compared to the compound's maximally attainable effect. The values can be determined e.g. in a cell line transfected with a FSH receptor gene and cotransfected with a cAMP responsive element/promoter directing the expression of a reporter gene. Values can be determined using a software program such as MathIQ (version 2.0, ID Business Solutions Limited).
Agonistic activity of the compounds at the human FSH receptor was determined in Chinese Hamster Ovary (CHO) cells stably transfected with the human FSH receptor and cotransfected with a cAMP responsive element (CRE)/promotor directing the expression of a firefly luciferase reporter gene. Binding of the compounds to the Gs protein-coupled FSH receptor will result in an increase of cAMP, which in turn will induce an increased transactivation of the luciferase reporter. Cells (7,500 cells/well of a 384 well plate) were incubated in Dulbecco' minimal essential F12 modified medium (Invitrogen), supplemented with 1 µg/ml bovine insulin, 5 µg/ml human apo-transferrin, 80 U/ml penicillin G and 80 µg/ml streptomycin with the test compounds (concentration between 0.0316 nM and 10.0 µM) in duplicate in a humidified atmosphere (95%) at 5-7% CO2 and 37°C. The final concentration of DMSO was 1%. After 4 hours of incubation, plates were allowed to adjust to room temperature for 1 hour. Then, Luclite (PerkinElmer) solution was added to the wells and cells were allowed to lyse for at least 1 hour at room temperature. Subsequently, luciferase activity was measured in a luminescence counter. The signal is expressed as counts per second (cps). The EC50 (concentration of the test compound that elicits half-maximal (50 %) luciferase stimulation compared to the compound's maximally attainable effect) and efficacy values (maximal effect of the test compound as percentage of the maximal effect of recombinant human FSH) of the compounds were determined using the software program MathIQ (version 2.0, ID Business Solutions Limited). EC50 data are indicated at the synthesis examples.
Consider `COc1cc2c(cc1-c1cccnc1)-c1c(-c3cccs3)nc(C(=O)N(C)C(C)(C)C)n1CC2` [Example 2a], for which the midpoint of the response, the EC50, lay at 1 nM.

The same assay, now with this note: CHO cells stably transfected with the human FSH receptor and CRE/firefly luciferase reporter; 4 hours of incubation; half-maximal stimulation relative to the compound's own maximal effect; read-out: hFSHRago (CHO luc) EC50.
On to `COc1cc2c(cc1Br)-c1c(-c3cccs3)nc(C(=O)N(C)C(C)(C)C)n1CC2` [Example 1j, 9-Bromo-8-methoxy-1-thiophen-2-yl-5,6-dihydro-imidazo[5,1-a]isoquinoline-3-carboxylic acid tert-butyl-methyl-amide], for which the EC50 is 36 nM.
Take `COc1cc2c(cc1-c1ccccn1)-c1c(-c3cccs3)nc(C(=O)N(C)C(C)(C)C)n1CC2` [Example 2b, 8-Methoxy-9-pyridin-2-yl-1-thiophen-2-yl-5,6-dihydro-imidazo[5,1-a]isoquinoline-3-carboxylic acid tert-butyl-methyl-amide]: the EC50 is 13 nM.
On the same count and under the same terms, with `COc1cc2c(cc1-c1cccc(F)n1)-c1c(-c3cccs3)nc(C(=O)N(C)C(C)(C)C)n1CC2` [Example 2c, 9-(6-Fluoro-pyrjdin-2-yl)-8-methoxy-1-thiophen-2-yl-5,6-dihydro-imidazo[5,1-a]iso-quinoline-3-carboxylic acid tert-butyl-methyl-amide] the figure was 3 nM; with `COc1cc2c(cc1-c1cccc(N3CCOCC3)n1)-c1c(-c3cccs3)nc(C(=O)N(C)C(C)(C)C)n1CC2` [Example 2d, 8-Methoxy-9-(6-morpholin-4-yl-pyridin-2-yl)-1-thiophen-2-yl-5,6-dihydro-imidazo[5,1-a]isoquinoline-3-carboxylic acid tert-butyl-methyl-amide], 100 nM; with `COc1cc2c(cc1-c1cccc(C(F)(F)F)c1)-c1c(-c3cccs3)nc(C(=O)N(C)C(C)(C)C)n1CC2` [Example 2e, 8-Methoxy-1-thiophen-2-yl-9-(3-trifluoromethyl-phenyl)-5,6-dihydro-imidazo[5,1-a]isoquinoline-3-carboxylic acid tert-butyl-methyl-amide], 65 nM.
On the same count and under the same terms, with `COc1cc2c(cc1-c1cccc(NC(C)=O)c1)-c1c(-c3cccs3)nc(C(=O)N(C)C(C)(C)C)n1CC2` [Example 2f, 9-(3-Acetylamino-phenyl)-8-methoxy-1-thiophen-2-yl-5,6-dihydro-imidazo[5,1-a]iso-quinoline-3-carboxylic acid tert-butyl-methyl-amide] the figure was 1 nM; with `COc1cc2c(cc1-c1cccc(-n3cccn3)c1)-c1c(-c3cccs3)nc(C(=O)N(C)C(C)(C)C)n1CC2` [Example 2g, 8-Methoxy-9-(3-pyrazol-1-yl-phenyl)-1-thiophen-2-yl-5,6-dihydro-imidazo[5,1-a]iso-quinoline-3-carboxylic acid tert-butyl-methyl-amide], 2 nM; with `COc1cc2c(cc1-c1cccc(N3CCOCC3)c1)-c1c(-c3cccs3)nc(C(=O)N(C)C(C)(C)C)n1CC2` [Example 2h, 8-Methoxy-9-(3-morpholin-4-yl-phenyl)-1-thiophen-2-yl-5,6-dihydro-imidazo[5,1-a]iso-quinoline-3-carboxylic acid tert-butyl-methyl-amide], 2 nM.
On to `COc1cc2c(cc1-c1cccc(F)c1)-c1c(-c3cccs3)nc(C(=O)N(C)C(C)(C)C)n1CC2` [Example 2i, 9-(3-Fluoro-phenyl)-8-methoxy-1-thiophen-2-yl-5,6-dihydro-imidazo[5,1-a]isoquinoline-3-carboxylic acid tert-butyl-methyl-amide], for which the EC50 was 3 nM.
On the same count and under the same terms, the figure for `COc1cc2c(cc1-c1ccccc1C#N)-c1c(-c3cccs3)nc(C(=O)N(C)C(C)(C)C)n1CC2` [Example 2j, 9-(2-Cyano-phenyl)-8-methoxy-1-thiophen-2-yl-5,6-dihydro-imidazo[5,1-a]isoquinoline-3-carboxylic acid tert-butyl-methyl-amide] is 5 nM.
Same read-out and setting: the figure for `COc1cc2c(cc1-c1cccc(N)c1)-c1c(-c3cccs3)nc(C(=O)N(C)C(C)(C)C)n1CC2` [Example 2k, 9-(3-Amino-phenyl)-8-methoxy-1-thiophen-2-yl-5,6-dihydro-imidazo[5,1-a]isoquinoline-3-carboxylic acid tert-butyl-methyl-amide] is 8 nM; for `COc1cc2c(cc1-c1cccc(N(C)C)c1)-c1c(-c3cccs3)nc(C(=O)N(C)C(C)(C)C)n1CC2` [Example 2l, 9-(3-Dimethylamino-phenyl)-8-methoxy-1-thiophen-2-yl-5,6-dihydro-imidazo[5,1-a]iso-quinoline-3-carboxylic acid tert-butyl-methyl-amide] it is 9 nM; for `COc1cc2c(cc1-c1c(C)noc1C)-c1c(-c3cccs3)nc(C(=O)N(C)C(C)(C)C)n1CC2` [Example 2m, 9-(3,5-Dimethyl-isoxazol-4-yl)-8-methoxy-1-thiophen-2-yl-5,6-dihydro-imidazo[5,1-a]iso-quinoline-3-carboxylic acid tert-butyl-methyl-amide] it is 9 nM.
On to `COc1cc2c(cc1-c1cccc(C(=O)N(C)C)c1)-c1c(-c3cccs3)nc(C(=O)N(C)C(C)(C)C)n1CC2` [Example 2n, 9-(3-Dimethylcarbamoyl-phenyl)-8-methoxy-1-thiophen-2-yl-5,6-dihydro-imidazo[5,1-a]iso-quinoline-3-carboxylic acid tert-butyl-methyl-amide], for which the EC50 is 11 nM.
As to `COc1cc2c(cc1-c1cccc(N3CCN(C(=O)OC(C)(C)C)CC3)c1)-c1c(-c3cccs3)nc(C(=O)N(C)C(C)(C)C)n1CC2` [Example 2o], the EC50 was 14 nM.
Same read-out and setting: with `COc1cc2c(cc1-c1cccc(S(C)(=O)=O)c1)-c1c(-c3cccs3)nc(C(=O)N(C)C(C)(C)C)n1CC2` [Example 2p, 9-(3-Methanesulfonyl-phenyl)-8-methoxy-1-thiophen-2-yl-5,6-dihydro-imidazo[5,1-a]iso-quinoline-3-carboxylic acid tert-butyl-methyl-amide] the figure was 15 nM.
On the same count and under the same terms, the figure for `COc1ccccc1-c1cc2c(cc1OC)CCn1c(C(=O)N(C)C(C)(C)C)nc(-c3cccs3)c1-2` [Example 2q, 8-Methoxy-9-(2-methoxy-phenyl)-1-thiophen-2-yl-5,6-dihydro-imidazo [5,1-a]isoquinoline-3-carboxylic acid tert-butyl-methyl-amide] is 50 nM; for `COc1cc2c(cc1-c1ccc3c(c1)OCO3)-c1c(-c3cccs3)nc(C(=O)N(C)C(C)(C)C)n1CC2` [Example 2r, 9-Benzo[1,3]dioxol-5-yl-8-methoxy-1-thiophen-2-yl-5,6-dihydro-imidazo[5,1-a]iso-quinoline-3-carboxylic acid tert-butyl-methyl-amide] it is 167 nM.
On to `C=Cc1cc2c(cc1OC)CCn1c(C(=O)N(C)C(C)(C)C)nc(-c3cccs3)c1-2` [Example 3b, 8-Methoxy-1-thiophen-2-yl-9-vinyl-5,6-dihydro-imidazo[5,1-a]isoquinoline-3-carboxylic acid tert-butyl-methyl-amide], for which the EC50 was determined as 28 nM.
For `COc1cc2c(cc1C(=O)Nc1nncs1)-c1c(-c3cccs3)nc(C(=O)N(C)C(C)(C)C)n1CC2` [Example 3e, 8-Methoxy-1-thiophen-2-yl-5,6-dihydro-imidazo[5,1-a]isoquinoline-3,9-dicarboxylic acid 3-(tert-butyl-methyl-amide) 9-[1,3,4]thiadiazol-2-ylamide], the EC50 turned out to be 3 nM.
Still for that read-out and setting: the figure for `CCc1nnc(NC(=O)c2cc3c(cc2OC)CCn2c(C(=O)N(C)C(C)(C)C)nc(-c4cccs4)c2-3)s1` [Example 4, 8-Methoxy-1-thiophen-2-yl-5,6-dihydro-imidazo[5,1-a]isoquinoline-3,9-dicarboxylic acid 3-(tert-butyl-methyl-amide) 9-[(5-ethyl-[1,3,4]thiadiazol-2-yl)-amide]] is 58 nM.
